Assays:
[1] = biological target: T1, human recombinant HDAC1 (Homo sapiens, UniProt Q13547); test: HDAC enzyme activity inhibition assay (HDAC Fluorimetric Drug Discovery Kit), HDAC1; assay type: biochemical; details: human recombinant HDAC1, Fluor de Lys-SIRT1 substrate, 30° C. 60 minutes
T1 construct: purchased Enzo Life Sciences, Inc. BML-SE456
Experimental: (§1) For the HDAC1 enzyme activity test, human recombinant HDAC1 (BML-SE456) was used as an enzyme source and Fluor de Lys©-SIRT1 (BNL-K1177) was used as a substrate. After dispensing 5-fold diluted compounds into a 96-well plate, 0.3 μg of enzyme and 10 μM substrate were added to each well of the plate and allowed to react at 30° C. for 60 minutes. Next, Fluor de Lys© Developer II (BML-K1176) was added and reacted for 30 minutes to complete the reaction, and then the fluorescence values (Ex 360, Em 460) were measured using a multi-plate reader (Flexstation 3, Molecular Device). The HDAC6 enzymes were tested using human recombinant HDAC6 (382180) from Calbiochem Inc., according to the same protocol as the HDAC1 enzyme activity test method. With respect to the final result values, respective IC50 values were calculated using GraphPad Prism 4.0 program (Table 2).

[2] = biological target: T2, human recombinant HDAC6 (Homo sapiens, UniProt Q9UBN7); test: HDAC enzyme activity inhibition assay (HDAC Fluorimetric Drug Discovery Kit), HDAC6; assay type: biochemical; details: for HDAC6 selectivity (fold): HDAC1 vs HDAC6; for IC50: human recombinant HDAC6, same protocol as HDAC1
T2 construct: purchased Calbiochem Inc. 382180
T2 sequence (Q9UBN7 1-1215): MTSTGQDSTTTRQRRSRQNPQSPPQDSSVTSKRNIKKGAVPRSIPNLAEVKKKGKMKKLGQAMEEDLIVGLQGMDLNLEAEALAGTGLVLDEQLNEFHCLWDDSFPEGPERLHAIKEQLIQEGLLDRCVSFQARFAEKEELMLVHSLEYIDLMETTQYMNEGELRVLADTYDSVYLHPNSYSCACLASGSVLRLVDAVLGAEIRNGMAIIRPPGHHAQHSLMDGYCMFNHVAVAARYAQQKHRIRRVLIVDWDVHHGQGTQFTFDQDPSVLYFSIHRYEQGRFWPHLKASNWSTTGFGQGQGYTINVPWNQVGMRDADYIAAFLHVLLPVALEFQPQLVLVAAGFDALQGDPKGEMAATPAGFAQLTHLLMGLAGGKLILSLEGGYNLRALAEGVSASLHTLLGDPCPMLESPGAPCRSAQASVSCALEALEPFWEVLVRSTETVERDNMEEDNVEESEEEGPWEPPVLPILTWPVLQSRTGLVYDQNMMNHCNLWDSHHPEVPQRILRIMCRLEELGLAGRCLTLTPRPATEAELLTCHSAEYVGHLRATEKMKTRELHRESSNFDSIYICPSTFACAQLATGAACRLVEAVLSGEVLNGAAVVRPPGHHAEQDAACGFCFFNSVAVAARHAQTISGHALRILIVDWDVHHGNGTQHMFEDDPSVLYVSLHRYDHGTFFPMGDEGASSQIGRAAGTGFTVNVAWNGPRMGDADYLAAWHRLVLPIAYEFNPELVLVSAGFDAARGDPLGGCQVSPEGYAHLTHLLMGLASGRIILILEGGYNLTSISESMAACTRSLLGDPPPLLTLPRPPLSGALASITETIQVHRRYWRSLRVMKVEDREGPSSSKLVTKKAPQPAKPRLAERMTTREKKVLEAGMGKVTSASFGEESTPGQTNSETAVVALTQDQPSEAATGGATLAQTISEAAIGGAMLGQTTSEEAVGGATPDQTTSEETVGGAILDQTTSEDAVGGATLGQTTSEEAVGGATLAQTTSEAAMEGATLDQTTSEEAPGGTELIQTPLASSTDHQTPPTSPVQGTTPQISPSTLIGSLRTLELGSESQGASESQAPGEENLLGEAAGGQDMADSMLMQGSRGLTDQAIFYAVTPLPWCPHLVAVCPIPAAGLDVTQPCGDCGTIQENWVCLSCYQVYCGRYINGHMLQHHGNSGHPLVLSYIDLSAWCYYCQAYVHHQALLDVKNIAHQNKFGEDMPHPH
Experimental: as §1

T1 sequence (Q13547 whole entry): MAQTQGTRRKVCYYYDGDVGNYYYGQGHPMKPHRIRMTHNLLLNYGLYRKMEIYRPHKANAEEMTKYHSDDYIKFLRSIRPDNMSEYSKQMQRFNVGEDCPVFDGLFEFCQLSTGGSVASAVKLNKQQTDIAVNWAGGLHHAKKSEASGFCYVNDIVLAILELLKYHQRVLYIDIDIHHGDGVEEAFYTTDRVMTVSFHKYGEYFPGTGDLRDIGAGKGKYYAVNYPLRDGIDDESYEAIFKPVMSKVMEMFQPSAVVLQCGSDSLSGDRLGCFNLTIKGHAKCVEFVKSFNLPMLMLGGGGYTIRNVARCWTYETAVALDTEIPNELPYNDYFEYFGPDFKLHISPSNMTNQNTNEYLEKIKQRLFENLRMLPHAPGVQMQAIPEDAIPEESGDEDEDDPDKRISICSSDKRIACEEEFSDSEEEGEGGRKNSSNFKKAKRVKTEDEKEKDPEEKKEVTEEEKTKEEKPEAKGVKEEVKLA

How did the IC50 [1] turn out when `O=C(N(Cc1ccc(-c2nnc(C(F)F)o2)cn1)c1cccc(F)c1)C1(F)CN(C2CCC2)C1` [Compound 3049, 1-cyclobutyl-N-((5-(5-(difluoromethyl)-1,3,4-oxadiazol-2-yl)pyridin-2-yl)methyl)-3-fluoro-N-(3-fluorophenyl)azetidine-3-carboxamide] was run?
Its IC50 is 21.6 µM.

What about the “HDAC6 selectivity (fold)” value [2] of the same molecule?
Its value is 392 fold.

And the IC50 [2]?
Its IC50 is 0.055 µM.

Which results are given for `O=C(N(Cc1ccc(-c2nnc(C(F)F)o2)cn1)c1cccc(F)c1)C1(F)CN(C2COC2)C1` [Compound 3050, N-((5-(5-(difluoromethyl)-1,3,4-oxadiazol-2-yl)pyridin-2-yl)meth 1)-3-fluoro-N-(3-fluorophenyl)-1-(oxetan-3-yl)azetidine-3-carboxamide]?
IC50 [1]: > 50 µM; HDAC6 selectivity (fold) [2]: 683 fold; IC50 [2]: 0.0732 µM

For `O=C(N(Cc1ccc(-c2nnc(C(F)F)o2)cn1)c1cccc(F)c1)C1(F)CN(C2CCOC2)C1` (stereo not drawn) [Compound 3052, N-((5-(5-(difluoromethyl)-1,3,4-oxadiazol-2-yl)pyridin-2-yl)methyl)-3-fluoro-N-(3-fluorophenyl)-1-(tetrahydrofuran-3-yl)azetidine-3-carboxamide], which IC50 [1] is on record?
Its IC50 is over 50 µM.

And the “HDAC6 selectivity (fold)” value [2]?
The value was 854 fold.

What about the IC50 [2] of the same molecule?
Its IC50 is 0.0585 µM.

Which IC50 [1] does the source give for `O=C(N(Cc1ccc(-c2nnc(C(F)F)o2)cn1)c1cccc(F)c1)C1(F)CN(C2CCCCC2)C1` [Compound 3053, 1-cyclohexyl-N-((5-(5-(difluoromethyl)-1,3,4-oxadiazol-2-yl)pyridin-2-yl)methyl)-3-fluoro-N-(3-fluorophenyl)azetidine-3-carboxamide] here?
The IC50 was over 50 µM.

And the “HDAC6 selectivity (fold)” value [2]?
The value was 668 fold.

What about the IC50 [2] of the same molecule?
The IC50 was 0.0748 µM.

Which IC50 [1] does the source give for `CCN1CC(F)(C(=O)N(Cc2ccc(-c3nnc(C(F)F)o3)cn2)c2cccc(F)c2)C1` [Compound 3090, N-((5-(5-(difluoromethyl)-1,3,4-oxadiazol-2-yl)pyridin-2-yl)methyl)-1-ethyl-3-fluoro-N-(3-fluorophenyl)azetidine-3-carboxamide] here?
The IC50 was over 50 µM.

And the “HDAC6 selectivity (fold)” value [2]?
The value was 2,212 fold.

What about the IC50 [2] of the same molecule?
Its IC50 is 0.0226 µM.

With `CCCN1CC(F)(C(=O)N(Cc2ccc(-c3nnc(C(F)F)o3)cn2)c2cccc(F)c2)C1` [Compound 3091, N-((5-(5-(difluoromethyl)-1,3,4-oxadiazol-2-yl)pyridin-2-yl)methyl)-3-fluoro-N-(3-fluorophenyl)-1-propylazetidine-3-carboxamide] as the molecule, how does the IC50 [1] read?
Its IC50 is over 50 µM.

What about the “HDAC6 selectivity (fold)” value [2] of the same molecule?
The value was 1,436 fold.

What about the IC50 [2] of the same molecule?
Its IC50 is 0.0348 µM.

What does the source list for `CC(C)CN1CC(F)(C(=O)N(Cc2ccc(-c3nnc(C(F)F)o3)cn2)c2cccc(F)c2)C1` [Compound 3093, N-((5-(5-(difluoromethyl)-1,3,4-oxadiazol-2-yl)pyridin-2-yl)methyl)-3-fluoro-N-(3-fluorophenyl)-1-isobutylazetidine-3-carboxamide]?
IC50 [1]: > 50 µM; HDAC6 selectivity (fold) [2]: 1,543 fold; IC50 [2]: 0.0324 µM

Which results are given for `CC(CO)N1CC(F)(C(=O)N(Cc2ccc(-c3nnc(C(F)F)o3)cn2)c2cccc(F)c2)C1` (stereo not drawn) [Compound 3094, N-((5-(5-(difluoromethyl)-1,3,4-oxadiazol-2-yl)pyridin-2-yl)methyl)-3-fluoro-N-(3-fluorophenyl)-1-(1-hydroxypropan-2-yl)azetidine-3-carboxamide]?
IC50 [1]: > 50 µM; HDAC6 selectivity (fold) [2]: 1,901 fold; IC50 [2]: 0.0263 µM

`O=C(N(Cc1ccc(-c2nnc(C(F)F)o2)cn1)c1cccc(F)c1)C1(F)CN(C2CCC(F)(F)CC2)C1` [Compound 3096, 1-(4,4-difluorocyclohexyl)-N-((5-(5-(difluoromethyl)-1,3,4-oxadiazol-2-yl)pyridin-2-yl)methyl)-3-fluoro-N-(3-fluorophenyl)azetidine-3-carboxamide] was tested. Which IC50 [1] did it give?
The IC50 was over 50 µM.

What about the “HDAC6 selectivity (fold)” value [2] of the same molecule?
The value was 1,385 fold.

What about the IC50 [2] of the same molecule?
The IC50 was 0.0361 µM.

Which results are given for `CN(C)CCC(=O)N1CC(F)(C(=O)N(Cc2ccc(-c3nnc(C(F)F)o3)cn2)c2cccc(F)c2)C1` [Compound 3097, N-((5-(5-(difluoromethyl)-1,3,4-oxadiazol-2-yl)pyridin-2-yl)methyl)-1-(3-(dimethylamino)propanoyl)-3-fluoro-N-(3-fluorophenyl)azetidine-3-carboxamide]?
IC50 [1]: > 50 µM; HDAC6 selectivity (fold) [2]: 1,612 fold; IC50 [2]: 0.031 µM

For `CN(C)CCCC(=O)N1CC(F)(C(=O)N(Cc2ccc(-c3nnc(C(F)F)o3)cn2)c2cccc(F)c2)C1` [Compound 3098, N-((5-(5-(difluoromethyl)-1,3,4-oxadiazol-2-yl)pyridin-2-yl)methyl)-1-(4-(dimethylamino)butanoyl)-3-fluoro-N-(3-fluorophenyl)azetidine-3-carboxamide], which IC50 [1] is on record?
The IC50 was over 50 µM.

What about the “HDAC6 selectivity (fold)” value [2] of the same molecule?
The value was 1,992 fold.

What about the IC50 [2] of the same molecule?
The IC50 was 0.0251 µM.

With `CN1CC(N2CC(F)(C(=O)N(Cc3ccc(-c4nnc(C(F)F)o4)cn3)c3ccccc3)C2)C1` [Compound 3105, N-((5-(5-(difluoromethyl)-1,3,4-oxadiazol-2-yl)pyridin-2-yl)methyl)-3-fluoro-1′-methyl-N-phenyl-[1,3′-biazetidine]-3-carboxamide] as the molecule, how does the IC50 [1] read?
Its IC50 is over 50 µM.

What about the “HDAC6 selectivity (fold)” value [2] of the same molecule?
Its value is 771 fold.

And the IC50 [2]?
The IC50 was 0.0648 µM.

Which results are given for `CCN1CC(N2CC(F)(C(=O)N(Cc3ccc(-c4nnc(C(F)F)o4)cn3)c3ccccc3)C2)C1` [Compound 3106, N-((5-(5-(difluoromethyl)-1,3,4-oxadiazol-2-yl)pyridin-2-yl)methyl)-1′-ethyl-3-fluoro-N-phenyl-[1,3′-biazetidine]-3-carboxamide]?
IC50 [1]: > 50 µM; HDAC6 selectivity (fold) [2]: 1,262 fold; IC50 [2]: 0.0396 µM

Which IC50 [1] does the source give for `CCCN1CC(N2CC(F)(C(=O)N(Cc3ccc(-c4nnc(C(F)F)o4)cn3)c3ccccc3)C2)C1` [Compound 3107, N-((5-(5-(difluoromethyl)-1,3,4-oxadiazol-2-yl)pyridin-2-yl)methyl)-3-fluoro-N-phenyl-1′-propyl-[1,3′-biazetidine]-3-carboxamide] here?
Its IC50 is over 50 µM.

What about the “HDAC6 selectivity (fold)” value [2] of the same molecule?
Its value is 1,059 fold.

What about the IC50 [2] of the same molecule?
The IC50 was 0.0472 µM.

`CCCCN1CC(N2CC(F)(C(=O)N(Cc3ccc(-c4nnc(C(F)F)o4)cn3)c3ccccc3)C2)C1` [Compound 3108, 1′-butyl-N-((5-(5-(difluoromethyl)-1,3,4-oxadiazol-2-yl)pyridin-2-yl)methyl)-3-fluoro-N-phenyl-[1,3′-biazetidine]-3-carboxamide] was tested. Which IC50 [1] did it give?
The IC50 was over 50 µM.

And the “HDAC6 selectivity (fold)” value [2]?
The value was 1,827 fold.

What about the IC50 [2] of the same molecule?
The IC50 was 0.0274 µM.

How did the IC50 [1] turn out when `CN1CCC(N2CC(F)(C(=O)N(Cc3ccc(-c4nnc(C(F)F)o4)cn3)c3ccccc3)C2)CC1` [Compound 3110, N-((5-(5-(difluoromethyl)-1,3,4-oxadiazol-2-yl)pyridin-2-yl)methyl)-3-fluoro-1-(1-methylpiperidin-4-yl)-N-phenylazetidine-3-carboxamide] was run?
Its IC50 is over 50 µM.

What about the “HDAC6 selectivity (fold)” value [2] of the same molecule?
Its value is 1,170 fold.

And the IC50 [2]?
Its IC50 is 0.0427 µM.

For `CCN1CCC(N2CC(F)(C(=O)N(Cc3ccc(-c4nnc(C(F)F)o4)cn3)c3ccccc3)C2)CC1` [Compound 3111, N-((5-(5-(difluoromethyl)-1,3,4-oxadiazol-2-yl)pyridin-2-yl)methyl)-1-(1-ethylpiperidin-4-yl)-3-fluoro-N-phenylazetidine-3-carboxamide], which IC50 [1] is on record?
The IC50 was over 50 µM.

What about the “HDAC6 selectivity (fold)” value [2] of the same molecule?
The value was 931 fold.

What about the IC50 [2] of the same molecule?
The IC50 was 0.0537 µM.

Reference: US20230278995A1, “1,3,4-OXADIAZOLE DERIVATIVE COMPOUNDS AS HISTONE DEACETYLASE 6 INHIBITOR, AND THE PHARMACEUTICAL COMPOSITION COMPRISING THE SAME” (CHONG KUN DANG PHARMACEUTICAL CORP., priority 2020, published 2023)
